# From patent US20120321565A1, “PHARMACEUTICAL COMPOSITIONS COMPRISING 17ALPHA-FURANYLESTERS OF 17BETA-CARBOTHIATE ANDROSTANES WITH A MUSCARINIC RECEPTOR ANTAGONIST” (GlaxoSmithKline Intellectual Property Management Limited, priority 2002, published 2012)
# Experiments:
# [1] = Pharmacokinetics after intravenous administration in the anaesthetised pig; assay type: in vivo; details: for clearance, compound (I) vs fluticasone propionate (in words): intravenous 0.1 mg/kg; for pharmacokinetic parameters, compound (I) vs fluticasone propionate (in words): intravenous mixture of the two compounds at 0.1 mg/kg
# Excerpt: The clearance of these two glucocorticoids is similar is this experimental pig model.
# NFκB = assay: Transrepression (NFκB): firefly luciferase NFκB reporter in TNFα-stimulated A549 cells; assay type: cell-based; details: Homo sapiens, TNFα 0.5 ng/ml, read-out: Transrepression (NFκB) ED50
# Excerpt: The glucocorticoid receptor (GR) can function in at least two distinct mechanisms, by upregulating gene expression through the direct binding of GR to specific sequences in gene promotors, and by downregulating gene expression that is being driven by other transcription factors (such as NFκB or AP-1) through their direct interaction with GR.
# The first cell line contains the firefly luciferase reporter gene under the control of a synthetic promoter that specifically responds to activation of the transcription factor NFκB when stimulated with TNFα. The second cell line contains the renilla luciferase reporter gene under the control of a synthetic promotor that comprises 3 copies of the consensus glucocorticoid response element, and which responds to direct stimulation by glucocorticoids. Simultaneous measurement of transactivation and transrepression was conducted by mixing the two cell lines in a 1:1 ratio in 96 well plate (40,000 cells per well) and growing overnight at 37° C. Test compounds were dissolved in DMSO, and added to the cells at a final DMSO concentration of 0.7%. After incubation for 1 h 0.5 ng/ml TNFα (R&D Systems) was added and after a further 15 hours at 37° C., the levels of firefly and renilla luciferase were measured using the Packard Firelite kit following the manufacturers' directions. Dose response curves were constructed from which EC50 values were determined.
# glucocorticoid receptor = biological target: T1, glucocorticoid receptor (Homo sapiens, UniProt P04150); assay: In vitro functional glucocorticoid assays (metabolite vs parent); assay type: cell-based
# T1 sequence (P04150 1-777): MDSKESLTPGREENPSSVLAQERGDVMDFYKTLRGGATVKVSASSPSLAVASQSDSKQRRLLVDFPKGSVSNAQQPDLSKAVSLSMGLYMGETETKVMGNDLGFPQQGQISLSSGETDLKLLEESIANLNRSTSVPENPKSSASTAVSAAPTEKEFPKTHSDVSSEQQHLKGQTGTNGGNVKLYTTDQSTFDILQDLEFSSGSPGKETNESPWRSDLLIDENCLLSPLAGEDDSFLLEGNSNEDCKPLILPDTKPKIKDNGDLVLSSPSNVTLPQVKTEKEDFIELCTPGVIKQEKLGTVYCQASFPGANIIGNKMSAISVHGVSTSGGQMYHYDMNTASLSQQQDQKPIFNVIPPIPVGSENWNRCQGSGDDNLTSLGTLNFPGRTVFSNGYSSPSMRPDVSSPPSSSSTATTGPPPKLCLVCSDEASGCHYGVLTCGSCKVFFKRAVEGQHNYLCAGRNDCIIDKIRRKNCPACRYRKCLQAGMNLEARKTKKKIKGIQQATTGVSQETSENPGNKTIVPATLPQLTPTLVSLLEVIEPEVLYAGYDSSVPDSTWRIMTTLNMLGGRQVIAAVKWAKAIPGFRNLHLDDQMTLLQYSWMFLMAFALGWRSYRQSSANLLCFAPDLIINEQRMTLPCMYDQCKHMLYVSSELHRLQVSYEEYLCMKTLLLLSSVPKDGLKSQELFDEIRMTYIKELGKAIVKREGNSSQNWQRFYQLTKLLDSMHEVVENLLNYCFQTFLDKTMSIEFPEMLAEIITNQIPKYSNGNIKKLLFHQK
# Excerpt: Compound (I) undergoes highly efficient hepatic metabolism to yield the 17-β carboxylic acid (X) as the sole major metabolite in rat and human in vitro systems.
"clearance, compound (I) vs fluticasone propionate (in words) [1]","pharmacokinetic parameters, compound (I) vs fluticasone propionate (in words) [1]",Compound,EC50 (NFκB) [nM],fold less active than the parent compound (glucocorticoid receptor) [fold]
similar,the same,"C[C@@H]1CC2C3C[C@H](F)C4=CC(=O)C=C[C@]4(C)[C@@]3(F)[C@@H](O)C[C@]2(C)[C@@]1(OC(=O)c1ccco1)C(=O)SCF (stereo partly drawn) [Compound of Formula (I), 6α, 9α-Difluoro-17α-[(2-furanylcarbonyl)oxy]-11β-hydroxy-16α-methyl-3-oxo-androsta-1,4-diene-17β-carbothioic acid S-fluoromethyl ester]",–,–
similar,the same,"CCC(=O)O[C@]1(C(=O)SCF)[C@H](C)C[C@H]2[C@@H]3C[C@H](F)C4=CC(=O)C=C[C@]4(C)[C@@]3(F)[C@@H](O)C[C@@]21C [Fluticasone propionate, 6α, 9α-Difluoro-17α-(1-oxopropoxy)-11β-hydroxy-16α-methyl-3-oxo-androsta-1,4-diene-17β-carbothioic acid S-fluoromethyl ester, reference compound]",–,–
–,–,C[C@@H]1CC2C3C[C@H](F)C4=CC(=O)C=C[C@]4(C)[C@@]3(F)[C@@H](O)C[C@]2(C)[C@@]1(OC(=O)c1ccco1)C(=O)O (stereo partly drawn) [Metabolite (X)],> 1000,> 1000
